Assays:
[1] = Intraperitoneal insulin tolerance test (ITT); type: in vivo; details: HFD-fed mice, 5th week of treatment, vs vehicle
Description: The described beneficial changes in body composition improved all aspects of the metabolic syndrome, including the underlying insulin resistance. Therefore, to fully characterize this animal model, we also assessed insulin signaling on live animals on the 5th week of Compound 14-3-treatment by conducting oral glucose tolerance test (OGTT, FIGS. 9A-C) and intraperitoneal insulin tolerance test (ITT, FIGS. 9D-E).
Both the OGTT and ITT tests were carried out on mice that have been starved for 6 hours before the procedure to eliminate the effect of the last meal on the blood glucose level. In both tests, we measured fasting glucose levels 30 min before the start of the assay to define baseline conditions. In the OGTT assay, the mice had been gavaged with 2 g/kg glucose, dissolved in water. After administration of the glucose, blood glucose level was measured via tail vein nicking using a commercially available glucometer. […] Additionally, the blood glucose level measured at 120 min after gavage was used to describe the overall glucose tolerance of the mice (FIG. 9C).
In the ITT test, we have intraperitoneally administered […] human recombinant insulin (Humulin N, Eli Lilly, Cambridge, MA) at the start of the assay and blood glucose was similarly measured for 120 min. […]

leptin = assay: Serum leptin (ELISA); type: in vivo; details: HFD-fed mice, FIG. 7C
Text: Since crosstalk between leptin and FGF21 has been proposed in connection with the anti-obesity effects of FGF21 and a suppressive effect of exogenous FGF21 on circulating leptin levels has been previously observed in non-human primates, we also measured serum leptin levels using a commercially available ELISA kit. As expected, changes in fat content in the Compound 14-3-treated HFD group were followed by decrease in serum levels of fat-derived ‘satiety’ hormone leptin, indicating improved leptin resistance resulting from treatment using a compound of the invention (FIG. 7C). Thus, lower circulation levels of leptin were most likely due to drug-induced reductions in the masses of fat depos. This finding can explain decrease in POMC gene expression in the hypothalamus, as leptin is capable to directly modulate hypothalamic melanocortin system by changing the activity of POMC neurons.

[2] = test system: hypothalamic molecular mediators of hunger and satiety signaling (AgRP, NPY, POMC); assay: Quantitative real-time PCR of hypothalamic hunger and satiety genes; type: in vivo; details: HFD-fed mice, FIG. 2B
Description: Referring now to FIG. 2B, hypothalamic molecular mediators of hunger and satiety signaling in hypothalamus were analyzed using quantitative real-time PCR with commercially available probes (Thermo Fisher Scientific Inc., Waltham, MA). AgRP and NPY are hunger-inducing signals, while POMC is powerful satiety-inducing signal in the hypothalamus. […] This was in agreement with the food intake information that we collected over the course of the experiment. […] Therefore, it was concluded that the expression levels of hypothalamic hunger or satiety genes cannot explain the marked weight loss of the Compound-14-3-treated mice on HFD and that decrease in satiety was secondary to prolonged negative energy balance in the same group.

[3] = test system: UCP1 and DIO2 in brown adipose tissue (BAT); assay: Quantitative real-time PCR of markers of thermogenic brown adipose tissue activation; type: in vivo; details: HFD-fed mice, vs vehicle; FIG. 2C
Text: Finally, the recruitment of brown adipose tissue (BAT) was examined. BAT is a well-know site for dissipating excess energy to prevent weight gain by inducing thermogenesis. Importantly, the expression levels of the two investigated markers of thermogenic BAT activation—UCP1 and DIO2—were not different in the two HFD-fed groups when measured by quantitative real-time PCR (FIG. 2C), indicating similar levels of BAT activation in response to HFD. These findings led us to conclude that for the weigh loss seen in the Compound 14-3-treated HFD-fed mice, other mechanisms are probably responsible.

human HepG2 liver cells = assay: Intracellular triglyceride content in HepG2 cells with palmitoleic acid (biochemical kit); type: cell-based; details: HepG2, 1.6 mM palmitoleic acid, 48 hours, 0.1 μM compound, vs DMSO; FIG. 10A
Description: A series of in vitro experiments were first carried out with various human hepatocyte cultures. For example, human HepG2 liver cells were incubated with 1.6 mM palmitoleic acid in EMEM medium for 48 hours in the presence of 0.1 μM Compound 14-3 or control vehicle, DMSO. After 48 hours, cells were collected and the intracellular triglyceride content was measured by a biochemical kit (Biovision, Mountain View, CA) as described in Derdak et al. J Hepatol. 2013; 58(4):785-91.

FGF21 = assay: Serum FGF21 (ELISA) and FGF21 gene expression; type: in vivo; details: HFD-fed mice
Text: Many of the beneficial metabolic effect are linked to FGF21, and FGF21 itself may further enhance fatty acid oxidation (Xu J, et al. Diabetes (2009) 58(1):250-259; Li H, et al. Diabetes (2012) 61(4):797-806). We, therefore, also measured serum levels of FGF21 using a commercially available ELISA kit. […] Accordingly, in an aspect of the invention, Compound 14-3 treatment is utilized to increase fatty acid oxidation, resulting in decreased fat content in iWAT and eWAT, and decreased body weight in a subject.

liver = assay: Liver size, appearance and liver/body weight ratio (NAFLD) in HFD-fed mice; type: in vivo
Text: The enlarged liver appeared pale yellow consistent with fatty metamorphosis. […] The beneficial effect on liver size and appearance was consistent as a part of overall improvement in metabolic properties after Compound 14-3 treatment.

[4] = test system: white adipose tissue adipocytes; assay: H & E staining and morphometry of eWAT and iWAT adipocytes; type: in vivo; details: HFD-fed mice

In the case of `CCN(CC)CCNC(=O)c1c(C)[nH]c(/C=C2\C(=O)Nc3ccc(-c4csc(-c5ccccc5)n4)cc32)c1C` [Compound 14-3], the “blood glucose levels in response to insulin (ITT)” value ([1]; i.p. insulin, 120 min, FIG. 9D) is reported as “steeper drop”, the “area under curve during ITT” value ([1]; FIG. 9E) is reported as “smaller” and the serum leptin levels (leptin) is reported as “decrease”. For the same molecule, the “satiety-inducing POMC expression in hypothalamus” value ([2]; vs corresponding control group) was “significant decrease”, the “expression of appetite-inducing genes (AgRP, NPY) in hypothalamus” value ([2]; vs vehicle) was “no significant difference” and the “DIO2 expression level in BAT” value [3] was “not different”. For the same molecule, the “UCP1 expression level in BAT” value [3] was “not different”, the “palmitoleic acid-induced increase of intracellular triglyceride content” value (human HepG2 liver cells) was “markedly suppressed” and the “serum FGF21 levels” value (FGF21; ELISA, FIG. 7A) was “increased”. For the same molecule, the FGF21 gene expression (FGF21; FIG. 7B) was “increased”, the NAFLD (liver; FIG. 8A) was “marked improvement” and the “size of the liver” value (liver; FIG. 8A) was “markedly decreased”. For the same molecule, the liver/body weight ratio (liver; FIG. 8B) was “lower”, the “size of eWAT adipocytes” value ([4]; H & E staining of eWAT, FIG. 4A-4B) was “decrease in the size of adipocytes” and the “size of iWAT adipocytes” value ([4]; H & E staining of iWAT, morphometry, FIG. 5A-5B) was “decrease in size of adipocytes”.

From patent US12390460B2, “Treatment for obesity” (1GLOBE BIOMEDICAL CO., LTD., priority 2018, dated 2025)
